According to patent US12162840B2, “Herbicidal compositions” (SYNGENTA PARTICIPATIONS AG, priority 2018, dated 2024):

How the values were obtained:
Assay type in all cases: in vivo
[1] = tested on: Amaranthus retoflexus (AMARE); experiment: B1 Post-emergence efficacy Test 1; conditions: post-emergence application, 1000 g/ha, evaluated after 13 days
Description: (§1) Seeds of a variety of test species are sown in standard soil in pots:—Solanum nigrum (SOLNI), Amaranthus retoflexus (AMARE), Setaria faberi (SETFA), Alopecurus myosuroides (ALOMY), Echinochloa crus-galli (ECHCG), Ipomoea hederacea (IPOHE), Lolium perenne (LOLPE). After 8 days cultivation (post-emergence) under controlled conditions in a glasshouse (at 24/16° C., day/night; 14 hours light; 65% humidity), the plants are sprayed with an aqueous spray solution derived from the formulation of the technical active ingredient in acetone/water (50:50) solution containing 0.5% Tween 20 (polyoxyethylene sorbitan monolaurate, CAS RN 9005-64-5). Compounds are applied at 1000 g/ha. The test plants are then grown in a glasshouse under controlled conditions in a glasshouse (at 24/16° C., day/night; 14 hours light; 65% humidity) and watered twice daily. After 13 days, the test is evaluated for the percentage damage caused to the plant. The biological activities are assessed on a five point scale (5=80-100%; 4=60-79%; 3=40-59%; 2=20-39%; 1=0-19%). A blank value in the table is indicative that the compound was not tested on that species.

[2] = tested on: Echinochloa crus-galli (ECHCG); experiment: B1 Post-emergence efficacy Test 1; conditions: post-emergence application, 1000 g/ha, evaluated after 13 days
Description: as §1

[3] = tested on: Ipomoea hederacea (IPOHE); experiment: B1 Post-emergence efficacy Test 1; conditions: post-emergence application, 1000 g/ha, evaluated after 13 days
Description: as §1

[4] = tested on: Lolium perenne (LOLPE); experiment: B1 Post-emergence efficacy Test 1; conditions: post-emergence application, 1000 g/ha, evaluated after 13 days
Description: as §1

[5] = tested on: Setaria faberi (SETFA); experiment: B1 Post-emergence efficacy Test 1; conditions: post-emergence application, 1000 g/ha, evaluated after 13 days
Description: as §1

[6] = tested on: Solanum nigrum (SOLNI); experiment: B1 Post-emergence efficacy Test 1; conditions: post-emergence application, 1000 g/ha, evaluated after 13 days
Description: as §1

[7] = tested on: warm season plant species; experiment: B2 Post-emergence efficacy Test 2, warm season plant species; conditions: 15 days after application, 0-100 scale, 0=no damage, 100=total kill; for Herbicidal activity, ABUTH: Abutilon theophrasti; for Herbicidal activity, AMARE: Amaranthus retroflexus; for Herbicidal activity, BIDPI: Bidens pilosa; for Herbicidal activity, BRAPL: Brachiaria plantaginea; for Herbicidal activity, DIGSA: Digitaria sanguinalis; for Herbicidal activity, ECHCG: Echinochloa crus galli; for Herbicidal activity, ELEIN: Eleisine indica; for Herbicidal activity, EPHHL: Euphorbia hetrophylla; for Herbicidal activity, GLXMA: Glycine max; for Herbicidal activity, IPOHE: Ipomoea hederacea; for Herbicidal activity, ORYSA: Orysa sativa; for Herbicidal activity, PANMI: Panicum miliaceum; for Herbicidal activity, SETFA: Setaria faberi; for Herbicidal activity, SIDSP: Sida spinosa; for Herbicidal activity, SORVU: Sorghum bicolour; for Herbicidal activity, XANST: Xanthium strumarium; for Herbicidal activity, ZEAMX: Zea mays
Description: Seeds of a variety of test species (see Table B1) were sown in standard soil in pots. After cultivation for 12 days (post-emergence) under controlled conditions in a glasshouse (at 24/18° C. or 20/16° C., at day/night; 16 hours light; 65% humidity), the plants were sprayed with an aqueous spray solution derived from the formulation of the technical active ingredient dissolved in IF50 (see Table B2 for composition) and adjuvant (Genapol XO80) was added to the spray solution at a rate of 0.2% v/v. [table] [table] After application, the test plants were grown in a glasshouse under controlled conditions (as above) and watered twice daily. Herbicidal activity was evaluated 15 days after application on a 0-100 scale. The results, where 0=no damage to test plant and 100=total kill of test plant are shown below in Tables 6 to 9.

Cc1nn(C)c(=O)c(-c2c(F)ccc(Cl)c2CCc2ccccc2C(F)(F)F)c1O [Compound 1.066]
90: Herbicidal activity, ABUTH ([7]; 125 g/Ha) | Herbicidal activity, ABUTH ([7]; 250 g/Ha) | Herbicidal activity, AMARE ([7]; 15 g/Ha) | Herbicidal activity, AMARE ([7]; 30 g/Ha) | Herbicidal activity, AMARE ([7]; 60 g/Ha) | Herbicidal activity, BIDPI ([7]; 250 g/Ha) | Herbicidal activity, BIDPI ([7]; 500 g/Ha) | Herbicidal activity, ECHCG ([7]; 60 g/Ha) | Herbicidal activity, ECHCG ([7]; 125 g/Ha) | Herbicidal activity, ECHCG ([7]; 250 g/Ha) | Herbicidal activity, ECHCG ([7]; 500 g/Ha) | Herbicidal activity, EPHHL ([7]; 125 g/Ha) | Herbicidal activity, GLXMA ([7]; 250 g/Ha) | Herbicidal activity, GLXMA ([7]; 500 g/Ha) | Herbicidal activity, IPOHE ([7]; 30 g/Ha) | Herbicidal activity, IPOHE ([7]; 60 g/Ha) | Herbicidal activity, SETFA ([7]; 250 g/Ha) | Herbicidal activity, SETFA ([7]; 500 g/Ha) | Herbicidal activity, SIDSP ([7]; 125 g/Ha) | Herbicidal activity, SIDSP ([7]; 250 g/Ha) | Herbicidal activity, SORVU ([7]; 250 g/Ha) | Herbicidal activity, XANST ([7]; 60 g/Ha)
20: Herbicidal activity, ABUTH ([7]; 15 g/Ha) | Herbicidal activity, DIGSA ([7]; 30 g/Ha) | Herbicidal activity, DIGSA ([7]; 60 g/Ha) | Herbicidal activity, ECHCG ([7]; 15 g/Ha) | Herbicidal activity, ELEIN ([7]; 30 g/Ha) | Herbicidal activity, GLXMA ([7]; 15 g/Ha) | Herbicidal activity, ORYSA ([7]; 250 g/Ha) | Herbicidal activity, SORVU ([7]; 30 g/Ha) | Herbicidal activity, ZEAMX ([7]; 30 g/Ha) | Herbicidal activity, ZEAMX ([7]; 60 g/Ha) | Herbicidal activity, ZEAMX ([7]; 125 g/Ha)
60: Herbicidal activity, BIDPI ([7]; 30 g/Ha) | Herbicidal activity, BRAPL ([7]; 30 g/Ha) | Herbicidal activity, EPHHL ([7]; 15 g/Ha) | Herbicidal activity, PANMI ([7]; 60 g/Ha) | Herbicidal activity, SORVU ([7]; 60 g/Ha)
5 (5=80-100%): percentage damage caused to the plant, five point scale, AMARE [1] | percentage damage caused to the plant, five point scale, ECHCG [2] | percentage damage caused to the plant, five point scale, IPOHE [3] | percentage damage caused to the plant, five point scale, SETFA [5] | percentage damage caused to the plant, five point scale, SOLNI [6]
70: Herbicidal activity, BIDPI ([7]; 60 g/Ha) | Herbicidal activity, BRAPL ([7]; 250 g/Ha) | Herbicidal activity, DIGSA ([7]; 250 g/Ha) | Herbicidal activity, DIGSA ([7]; 500 g/Ha) | Herbicidal activity, ELEIN ([7]; 60 g/Ha) | Herbicidal activity, ELEIN ([7]; 125 g/Ha) | Herbicidal activity, ELEIN ([7]; 250 g/Ha) | Herbicidal activity, EPHHL ([7]; 30 g/Ha) | Herbicidal activity, GLXMA ([7]; 60 g/Ha) | Herbicidal activity, GLXMA ([7]; 125 g/Ha) | Herbicidal activity, IPOHE ([7]; 15 g/Ha) | Herbicidal activity, SETFA ([7]; 30 g/Ha) | Herbicidal activity, SETFA ([7]; 60 g/Ha) | Herbicidal activity, ZEAMX ([7]; 500 g/Ha)
0: Herbicidal activity, BRAPL ([7]; 15 g/Ha) | Herbicidal activity, DIGSA ([7]; 15 g/Ha) | Herbicidal activity, ELEIN ([7]; 15 g/Ha) | Herbicidal activity, ORYSA ([7]; 15 g/Ha) | Herbicidal activity, ORYSA ([7]; 30 g/Ha) | Herbicidal activity, ORYSA ([7]; 60 g/Ha) | Herbicidal activity, PANMI ([7]; 15 g/Ha) | Herbicidal activity, SETFA ([7]; 15 g/Ha) | Herbicidal activity, SORVU ([7]; 15 g/Ha) | Herbicidal activity, ZEAMX ([7]; 15 g/Ha)
80: Herbicidal activity, BIDPI ([7]; 125 g/Ha) | Herbicidal activity, BRAPL ([7]; 125 g/Ha) | Herbicidal activity, ECHCG ([7]; 30 g/Ha) | Herbicidal activity, ELEIN ([7]; 500 g/Ha) | Herbicidal activity, EPHHL ([7]; 60 g/Ha) | Herbicidal activity, PANMI ([7]; 125 g/Ha) | Herbicidal activity, SETFA ([7]; 125 g/Ha) | Herbicidal activity, SIDSP ([7]; 30 g/Ha) | Herbicidal activity, SIDSP ([7]; 60 g/Ha) | Herbicidal activity, SORVU ([7]; 125 g/Ha)
40: Herbicidal activity, DIGSA ([7]; 125 g/Ha) | Herbicidal activity, GLXMA ([7]; 30 g/Ha) | Herbicidal activity, ORYSA ([7]; 500 g/Ha) | Herbicidal activity, SIDSP ([7]; 15 g/Ha)
100: Herbicidal activity, ABUTH ([7]; 500 g/Ha) | Herbicidal activity, AMARE ([7]; 125 g/Ha) | Herbicidal activity, AMARE ([7]; 250 g/Ha) | Herbicidal activity, AMARE ([7]; 500 g/Ha) | Herbicidal activity, BRAPL ([7]; 500 g/Ha) | Herbicidal activity, EPHHL ([7]; 250 g/Ha) | Herbicidal activity, EPHHL ([7]; 500 g/Ha) | Herbicidal activity, IPOHE ([7]; 125 g/Ha) | Herbicidal activity, IPOHE ([7]; 250 g/Ha) | Herbicidal activity, IPOHE ([7]; 500 g/Ha) | Herbicidal activity, PANMI ([7]; 250 g/Ha) | Herbicidal activity, PANMI ([7]; 500 g/Ha) | Herbicidal activity, SIDSP ([7]; 500 g/Ha) | Herbicidal activity, SORVU ([7]; 500 g/Ha) | Herbicidal activity, XANST ([7]; 250 g/Ha) | Herbicidal activity, XANST ([7]; 500 g/Ha)
4 (4=60-79%): percentage damage caused to the plant, five point scale, LOLPE [4]
30: Herbicidal activity, ZEAMX ([7]; 250 g/Ha)
50: Herbicidal activity, ABUTH ([7]; 30 g/Ha) | Herbicidal activity, ABUTH ([7]; 60 g/Ha) | Herbicidal activity, BIDPI ([7]; 15 g/Ha) | Herbicidal activity, PANMI ([7]; 30 g/Ha)
10: Herbicidal activity, ORYSA ([7]; 125 g/Ha)
